Reference: publication PMC9791135, “A penetratin-derived peptide reduces the membrane permeabilization and cell toxicity of α-synuclein oligomers” (The Journal of Biological Chemistry, 2022)
Where a SMILES comes first, the peptide text is derived from it.

Key:
[1] = Calcein release assay, substance alone; details: for Peptide concentration from which membrane toxicity is shown: peptide alone, calcein-filled DOPG LUVs, tested range 10^−1–10^−6 mg/ml
Description: αSOs show cytotoxic properties, which have been attributed to their membrane-disrupting ability ([69]). To examine the effect of peptides on membrane permeabilization by αSOs, we used a simple calcein release assay. αSOs, peptides, and aSO–peptide mixtures at 10^−6 to 10^−1 mg/ml peptide were added to calcein-loaded DOPG vesicle, and the extent of calcein release was monitored for 30 min by the increase in fluorescence as calcein leaks out upon membrane permeabilization, leading to dilution and the loss of self-quenching. The time-dependent calcein release data from DOPG vesicles ([70], [71]) in the presence of peptides, αSOs, and αSO–peptides are shown in Figs. S9 and S10. In order to allow easy comparison of all peptides, the calcein release versus concentration (peptides and αSOs) were plotted at the plateau point of release (Fig. 5, A–C). […] Figure 5D compares calcein release percentages of data represented in Figure 5, A and B at peptide concentrations between 0.001 and 0.1 mg/ml, where we see the largest extent of calcein release in general.
Calcein-filled vesicles of DOPG were prepared as described before ([38]). Briefly, DOPG was dissolved in PBS to […], in the presence of calcein at self-quenching concentrations (70 mM) and subjected to 10 freeze–thaw cycles between liquid nitrogen and a 50 °C water bath. After 21 times extrusion through a 100 nm filter, free calcein was separated from vesicles with a PD-10 desalting column (GE Healthcare). Vesicles were stored at 4 °C and used for calcein release assays within 24 h.
Calcein release was measured by mixing peptides and/or αSOs at a final concentration of 10^−6 to 10^−1 mg/ml and 5.2 μg/ml, respectively, in 148 μl with 2 μl of calcein vesicles, and were then loaded onto a 96-well plate (Nunc, Thermo Fischer Scientific) in triplicate. The plate was sealed with Crystal clear sealing tape (Hampton Research), and fluorescence was measured (excitation: 485 nm and emission: 520 nm) for 1 h at 37 °C every 2 min with a 2 s autoshake before each reading on a fluorescence plate reader (Tecan). Finally, 2 μl Triton X-100 (0.2% [v/v]) was added to lyse vesicles, and the maximal fluorescence signal was measured for 20 min under the same reading condition. Background fluorescence was subtracted, and the average signal of calcein release before addition of Triton X-100 (F), after treatment with Triton X-100 (Ft) and for the buffer control (F0) were determined, and calcein release percentage was calculated as follow (Equation 1):(1) CalceinRelease%(CR%)=(F−F0)/(Ft−F0)

[2] = target: T1, α-syn (Homo sapiens, UniProt P37840); assay: ATR–FTIR of fibrillated α-syn–peptide samples; format: biochemical; details: for ATR–FTIR (amyloid structures): fibrillated samples after washing, versus α-syn alone; for Amount of amyloid structures (ATR–FTIR), in words: fibrillated α-syn samples in the presence of peptides
T1 construct: made in house; host or cells: Escherichia coli BL21 (DE3), plasmid pET11-D
Text: (§1) To analyze the secondary structure of the final aggregates, we recorded far-UV CD and attenuated total reflectance (ATR)–FTIR spectra for fibrillated samples after washing to remove free α-syn and peptides. […] Overall, as the concentration of peptides increases, the intensity of signal at 218 nm decreases (Fig. 4A). We observed that α-syn fibrils formed in the presence of p194, p222, p235, and p249 precipitated rapidly after mixing with these peptides. This likely gives rise to light scattering, which reduces CD signals. To overcome these artifacts, we turned to ATR–FTIR spectroscopy, which is not sensitive to scattering. […] Both far-UV CD and ATR–FTIR spectroscopy confirm extensive β-sheet structure. However, in the presence of peptides, some structural changes were observed as reflected by the decrease in the amyloid cross β-sheet structure at ∼1629 cm^−1 and increases in the random and coil structures (∼1656 and ∼1676 cm^−1, respectively) (Table 2). […] Taking all together, ATR–FTIR data are in reasonable agreement with far-UV CD.
The samples prepared in the CD section were also used to measure FTIR spectra on a Tensor 27 FTIR spectrophotometer (Bruker). About 2 μl α-syn fibrils were dried on the ATR crystal with a gentle stream of nitrogen gas. Spectra were accumulations of 68 scans in the 4000 to 1000 cm^−1 range. Baseline correlation, second derivative, and atmospheric compensation were performed with OPUS 5.5 software (Bruker, Germany). Signals in the amide I region (∼1550–1700 cm^−1) were smoothed and deconvoluted with PeakFit, version 4.12 software (ِSystat Software Inc) using Lorentzian fitting.

[3] = target: T1, α-syn; assay: Far-UV CD of fibrillated α-syn–peptide samples; format: biochemical; details: fibrillated samples after washing, signal at 218 nm; versus α-syn alone
Text: as §1
To remove free α-syn and peptides, fibrillated samples were centrifuged (13,000 rpm, 15 min). This leaves monomeric α-syn plus unbound and free peptides in the supernatant. The supernatant was discarded, and the pellet was washed two times in the same volume of PBS buffer, pH 7.4, to ensure complete removal of monomeric α-syn and free peptides. Far-UV CD spectra were recorded at 25 °C on a Chirascan CD Spectrophotometer (Applied Photophysics) using a 0.1 mm quartz cuvette in the wavelength range of 200 to 260 nm with 1 nm bandwidth and three accumulations. The buffer spectrum was subtracted, and the results were expressed as mean residue ellipticity [θ] (deg cm^2 dmol^−1).

[4] = target: T1, α-syn; assay: TEM of α-syn aggregates formed with peptides; format: biochemical; details: for Morphology of α-syn aggregates (TEM), in words: α-syn incubated in the presence of peptide; for Morphology (TEM): α-syn aggregates after incubation with peptide, versus α-syn alone
Description: Five microliters of each fibril-containing solution were applied to 400-mesh carbon-coated and glow-discharged nickel grids for 30 s, and blotted with filter paper to remove excess sample. The grids were washed with one drop of double distilled water and then stained with 3 μl of 1% uranyl formate for 15 s. Excess stain was removed by blotting paper This step was repeated two more times. Finally, the grids were left to air dry and viewed on a Tecnai G2 Spirit (FEI Company) operating at 60 kV, and images were taken using a TemCam F416 camera (TVIPS).

[5] = target: T1, α-syn; assay: SDS-PAGE of soluble α-syn left in supernatant after fibrillation; format: biochemical; details: for Amount of soluble α-syn monomer left in the supernatant, in words: SDS-PAGE after centrifugation of fibrillated samples; for Soluble α-syn left in supernatant (SDS-PAGE gel): after end of incubation, centrifuged 13,000 rpm 15 min, versus α-syn alone
Description: Overall, there was a reasonable but not perfect correspondence between SDS-PAGE and ThT data.
To determine the amount of soluble α-syn, fibrillated samples were centrifuged (13,000 rpm, 15 min) and the supernatants were loaded on Bis–Tris 15% acrylamide gel with prestained protein ladder (Thermo Scientific) and run in a Bis–Tris running buffer at 150 V for 70 min, stained for 20 min in Coomassie brilliant blue (1.2 mM Coomassie brilliant blue, 5% ethanol, and 7% acetic acid), and destained overnight in a destaining solution (5% ethanol and 5% acetic acid). Gel bands were quantified using ImageJ.

Compound	Peptide concentration from which membrane toxicity is shown [1]	ATR–FTIR (amyloid structures) [2]	Amount of amyloid structures (ATR–FTIR), in words [2]	Far-UV CD (β-sheet structures) [3]	Morphology of α-syn aggregates (TEM), in words [4]	Amount of soluble α-syn monomer left in the supernatant, in words [5]	Soluble α-syn left in supernatant (SDS-PAGE gel) [5]	Morphology (TEM) [4]	Permeabilization of lipid vesicles by peptide alone ([1]; calcein-loaded DOPG vesicles, 10^−6 to 10^−1 mg/ml peptide, 37 °C, triplicate)
CC[C@H](C)[C@H](NC(=O)[C@H](Cc1ccccc1)NC(=O)[C@H](Cc1c[nH]c2ccccc12)NC(=O)[C@H](CCCNC(=N)N)NC(=O)[C@H](CC(N)=O)NC(=O)[C@@H](NC(=O)[C@H](CCC(N)=O)NC(=O)[C@H](CCCCN)NC(=O)[C@@H](N)CCSC)[C@@H](C)CC)C(=O)N[C@@H](CCCNC(=N)N)C(=O)N[C@@H](Cc1c[nH]c2ccccc12)C(=O)N[C@@H](CCC(N)=O)C(=O)N[C@@H](CCCCN)C(=O)N[C@@H](CCCCN)C(=O)N[C@@H](CCCNC(=N)N)C(=O)N[C@@H](CCCCN)C(=O)O [p249] (H-MKQINRWFIRWQKKRK-OH; N-terminus and C-terminus assumed)	> 10^−2 mg/ml	↓↓↓ amyl	decreased	↓↓↓β	nonfibrillar (amorphous) accumulations	decrease solubility	↓↓		
RQIKIWFQNRRFKWKK [p222, penetratin with modulated hydrophobicity]	> 10^−4 mg/ml	↓↓ amyl	decreased	↓↓↓β	needle-shaped and short fibrils	decrease solubility	↓↓	S, N	
CC[C@H](C)[C@H](NC(=O)[C@H](Cc1c[nH]c2ccccc12)NC(=O)[C@H](CCCNC(=N)N)NC(=O)[C@H](Cc1c[nH]c2ccccc12)NC(=O)[C@H](CCCCN)NC(=O)[C@@H](NC(=O)[C@H](CCCCN)NC(=O)[C@H](CCC(N)=O)NC(=O)[C@@H](N)CC(N)=O)[C@@H](C)CC)C(=O)N[C@@H](CCC(N)=O)C(=O)N[C@@H](CCCNC(=N)N)C(=O)N[C@@H](Cc1ccccc1)C(=O)N[C@@H](CCCNC(=N)N)C(=O)N[C@@H](CCCCN)C(=O)N[C@@H](CCCCN)C(=O)N[C@@H](CCSC)C(=O)O [p235] (H-NQKIKWRWIQRFRKKM-OH; N-terminus and C-terminus assumed)	> 10^−2 mg/ml	↓↓↓ amyl	decreased	↓↓↓β	nonfibrillar (amorphous) accumulations				
CC(C)C[C@H](NC(=O)[C@H](Cc1c[nH]cn1)NC(=O)[C@H](CO)NC(=O)[C@H](CO)NC(=O)[C@H](C)NC(=O)[C@@H](N)CO)C(=O)N[C@@H](Cc1c[nH]cn1)C(=O)N[C@@H](Cc1c[nH]cn1)C(=O)NCC(=O)N[C@@H](Cc1c[nH]cn1)C(=O)N[C@@H](CO)C(=O)NCC(=O)NCC(=O)O [p168] (H-SASSHLHHGHSGG-OH)			did not show significant changes in FTIR spectra	↓↓β	longer and thinner fibrils	decrease solubility		L, T, I	did not permeabilize lipid vesicles
